Reference: patent US9382306B2, “Octapeptide compounds derived from somatostatin and the therapeutic use thereof” (IPSEN PHARMA S.A.S., priority 2008, dated 2016)
Values after ≈ are worked out from the molar mass of the structure shown. Values joined by “and” are separate entries in the source; they are usually repeats but may differ in a detail not shown here. Equal values may be shown once. Bridge positions count the residues as written; N and C are the ends. Square brackets hold non-standard residues; d marks the D form. Peptide text beside a SMILES is read from it. ξ: configuration not given here. dPhe(4-NO2) = N[C@H](Cc1ccc([N+](=O)[O-])cc1)C(=O)O; dPhe(3,5-F2) = N[C@H](Cc1cc(F)cc(F)c1)C(=O)O; dPhe(3-Br) = N[C@H](Cc1cccc(Br)c1)C(=O)O; dPhe(3-F) = N[C@H](Cc1cccc(F)c1)C(=O)O; dPhe(4-F) = N[C@H](Cc1ccc(F)cc1)C(=O)O; d2Nal = N[C@H](Cc1ccc2ccccc2c1)C(=O)O; dPhe(2-F) = N[C@H](Cc1ccccc1F)C(=O)O; Thr(3ξ) = CC(O)[C@H](N)C(=O)O

Legend:
[1] = target: T1, somatostatin receptors sub-type 2 (Homo sapiens, UniProt P30874); assay: Affinity for somatostatin receptors: inhibition of [125I-Tyr11]SRIF-14 binding to membranes of transfected CHO-K1 cells; settings: competitive inhibition of [125I-Tyr11]SRIF-14 binding, 37° C.
T1 construct: expressed in transfected cells; membrane preparations
Procedure: (§1) The affinity of the compounds of the invention for the somatostatin receptors is determined by measurement of the inhibition of the bond of [125I-Tyr11]SRIF-14 to membrane preparations of transfected CHO-K1 cells.
(§2) The CHO-K1 cells expressing in a stable fashion each of the sub-types of somatostatin receptors are collected with 0.5 mM of EDTA and centrifuged at 500 g for 5 minutes at 4° C. The pellet is re-suspended in phosphate buffer (PBS) and centrifuged at 500 g for 5 minutes at 4° C. The pellet is re-suspended in Tris 50 mM buffer at pH 7.4 and centrifuged at 500 g for 5 minutes at 4° C. The cells are lyzed by sonication and centrifuged at 39,000 g for 10 minutes. The pellet is re-suspended in Tris 50 mM buffer at pH 7.4, an aliquot is removed for assaying the proteins and the remainder is centrifuged at 50,000 g for 10 minutes. The membranes obtained in this last pellet are stored at −80° C.
(§3) Measurement of the competitive inhibition of the bond of [125I-Tyr11]SRIF-14 (Perkin Elmer) on each of the sub-types of somatostatin receptors is carried out in duplicate in 96-well polypropylene plates. The cell membranes (5 to 20 µg of proteins/well) are incubated with [125I-Tyr11]SRIF-14 (0.05 to 0.1 nM) for 50 to 90 minutes at 37° C. (conditions dependent on the sub-type of receptor) in a HEPES buffer medium 50 mM pH 7.4, comprising 0.2% bovine serum albumin (BSA), MgCl2 5 mM, Trasylol 200 KIU/mL, Bacitracin 0.02 mg/mL, phenylmethylsulphonyl fluoride 0.02 mg/mL.
(§4) The bound [125I-Tyr11]SRIF-14 is separated from the free [125I-Tyr11]SRIF-14 by filtration through GF/C glass fibre plates (Unifilter, Perkin Elmer) pre-impregnated with 0.1% polyethylenimine (P.E.I.), using a Filtermate 96 (Perkin Elmer). The filters are washed with Tris-HCl buffer 50 mM, pH 7.4 at 4° C. and the radioactivity present is determined using a counter (TopCount, Perkin Elmer).
(§5) The data are analyzed by computer-assisted non-linear regression using XLfit 4.2 (IDBS) software.

[2] = target: T2, somatostatin receptors sub-type 5 (Homo sapiens, UniProt P35346); assay: as above; settings: competitive inhibition of [125I-Tyr11]SRIF-14 binding, 37° C.
T2 construct: expressed in transfected cells; membrane preparations
Procedure: as §1, §2, §3, §4, §5

[3] = Self-assembly study: putting peptides in solution in water, macroscopic, ATR-FTIR, TEM and SAXS analysis; type: physicochemical; settings: 3 to 15% by mass of peptide in water; form and diameter of the self-assembled structure, or soluble / insoluble
Description: The procedure used comprises three stages: putting the peptides in solution and macroscopic analysis; spectroscopic and microscopic analyses of the structures formed and by small-angle X-ray scattering (SAXS) analyses.
The first stage of the characterization of the derivatives is the production of a range of concentrations from 3 to 15% by mass of peptide in water. Gelling of the solution indicates the presence of self-assembled structures which can be nanotubes but can also be fibres or other self-organised structures.
The object of this stage is to verify the presence of self-assembled structures, to characterize their self-assembly and to visualize them by microscopy.
Infrared spectroscopy makes it possible to obtain information on the method of stacking the peptides in the self-assemblies. The amide band spectrum, reflecting the absorption spectra of the carbonyl functions of the peptide backbone, gives information on the type of hydrogen bond in which these groups are involved (H bonds leading to the formation of the […], a helix or also a loop or random conformation) and consequently on the secondary and tertiary structure of the peptides in solution and self-assembled. The attenuated total reflection technique (ATR-FTIR) uses a crystal on which the solid or liquid sample is deposited. The infrared light is guided through this crystal at an angle which allows it to be reflected several times inside the crystal, which increases the sensitivity of the technique. Due to the performance of this device, it is then possible perform measurements on relatively dilute solutions. The beam penetrates a few microns into the sample deposited on the crystal, which means that only the molecules/structures which are deposited on the surface of the crystal are analyzed. Moreover, this technique is non-destructive.
The assembled structures are then visualized by transmission electron microscopy (TEM). This very powerful technique, allowing magnifications greater than 500,000 times, is one of the few techniques capable of visualizing structures on the nanometric scale. The sample is subjected to an electron beam. The visualization of the transmitted beam is produced either by a photoluminescent screen, or by a CCD camera. The sample in the microscope being under vacuum, it is samples dried after staining with uranyl salts in order to increase contrast which are observed.
The peptide in solution is firstly deposited on a copper grid covered with a film of carbon. After deposition of the materiel, the excess liquid is eliminated. In the same way, the solution of colorant, in our case uranyl acetate, is deposited on the grid, the excess is eliminated and the grid is dried in the open air. It can then be introduced into the microscope.
The samples, liquids or gels, are introduced into a capillary column and subjected to a monochromatic flow of X-rays. The intensity diffused is measured as a function of the scattering angle with respect to the incident angle.
The diffusion patterns thus obtained must be the subject of a correlation with a close theoretical model of the structures present in the sample. In the case where the peptides have self-assembled in the form of hollow nanotubes, the modelling of the experimental data with the theoretical diffusion produced by infinitely long hollow columns makes it possible to determine with precision the diameter of the columns and to estimate their wall thickness (Valery et al. in Biophysical journal, 2004, 86(4), 2484-2501 and Proc. Natl. Acad. Sci., 2003, 100(18) 10258-10262). For polydisperse, nanotubular, fibrilar, micellar or lamellar self-assemblies, it is the correlation of the spectroscopic, microscopic and XR scattering data which makes it possible to estimate a size range for the objects observed.

[4] = Solubility study before preparative HPLC; type: physicochemical; settings: water-acetonitrile mixture 58:42; water-acetonitrile solution 58:42
Description: The peptide must be dissolved in a water-acetonitrile mixture in order be injected into the preparative HPLC. A solubility study is first carried out on a small quantity. It allows the optimum percentage of acetonitrile and the maximum quantity of peptide to be established. The lowest possible percentage of acetonitrile with a very high concentration of peptide and a resultant clear solution constitute ideal conditions. By way of example, the solubility of the 4-para-fluorophenylalanine derivative (Example 13 hereafter) was established at 49 g l^−1 in a water-acetonitrile solution 58:42.

T2 sequence (P35346 whole entry): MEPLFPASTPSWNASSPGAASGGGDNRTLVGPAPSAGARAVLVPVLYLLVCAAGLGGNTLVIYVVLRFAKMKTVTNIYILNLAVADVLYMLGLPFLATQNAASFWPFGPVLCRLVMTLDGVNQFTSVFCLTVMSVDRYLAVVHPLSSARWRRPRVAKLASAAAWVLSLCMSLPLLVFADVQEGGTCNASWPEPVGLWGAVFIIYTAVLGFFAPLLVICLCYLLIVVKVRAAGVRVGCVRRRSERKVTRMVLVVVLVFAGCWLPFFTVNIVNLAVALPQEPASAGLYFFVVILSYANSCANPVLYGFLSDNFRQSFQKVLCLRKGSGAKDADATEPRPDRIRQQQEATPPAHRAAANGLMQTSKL
T1 sequence (P30874 whole entry): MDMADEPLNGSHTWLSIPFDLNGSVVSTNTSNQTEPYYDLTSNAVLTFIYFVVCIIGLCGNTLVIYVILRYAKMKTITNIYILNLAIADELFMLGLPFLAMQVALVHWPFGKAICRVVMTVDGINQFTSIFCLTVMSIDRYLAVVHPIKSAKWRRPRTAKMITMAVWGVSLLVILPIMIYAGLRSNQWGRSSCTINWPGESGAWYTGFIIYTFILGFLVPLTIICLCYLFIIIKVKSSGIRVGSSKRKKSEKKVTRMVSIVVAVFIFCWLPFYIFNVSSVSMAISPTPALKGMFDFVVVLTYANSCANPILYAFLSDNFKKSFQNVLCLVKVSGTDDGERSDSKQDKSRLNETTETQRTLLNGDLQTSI

Row | Structure (SMILES) | Ki [1] | Ki [2] | Assembly [3] | solubility [4]
1 | CC(C)[C@@H]1NC(=O)[C@H](CCCCN)NC(=O)[C@@H](Cc2ccc(F)cc2)NC(=O)[C@H](Cc2ccc(O)cc2)NC(=O)[C@@H](NC(=O)[C@H](N)Cc2ccc3ccccc3c2)CSSC[C@@H](C(=O)N[C@H](C(N)=O)C(C)O)NC1=O (stereo partly drawn) [Example 13, H-D-2-Nal^1-cyclo(Cys^2-Tyr^3-p-F-D-Phe^4-Lys^5-Val^6-Cys^7)-Thr^8-NH2.2 CH3COOH] (H-[d2Nal]CY[dPhe(4-F)]KVC[Thr(3ξ)]-NH2; disulfide 2-7) | ≤ 5 nM | ≤ 1000 nM | monodisperse peptide nanotubes and 17 nm monodisperse nanotube | 49 mg/mL (≈ 45.6 mM)
2 | CC(C)[C@@H]1NC(=O)[C@H](CCCCN)NC(=O)[C@@H](Cc2cccc(F)c2)NC(=O)[C@H](Cc2ccc(O)cc2)NC(=O)[C@@H](NC(=O)[C@H](N)Cc2ccc3ccccc3c2)CSSC[C@@H](C(=O)N[C@H](C(N)=O)C(C)O)NC1=O (stereo partly drawn) [Example 15, H-D-2-Nal^1-cyclo(Cys^2-Tyr^3-m-F-D-Phe^4-Lys^5-Val^6-Cys^7)-Thr^8-NH2.2 CH3COOH] (H-[d2Nal]CY[dPhe(3-F)]KVC[Thr(3ξ)]-NH2; disulfide 2-7) | ≤ 5 nM | ≤ 100 nM | monodisperse peptide nanotubes and 15.6 nm monodisperse nanotube | 
3 | CC(C)[C@@H]1NC(=O)[C@H](CCCCN)NC(=O)[C@@H](Cc2ccccc2F)NC(=O)[C@H](Cc2ccc(O)cc2)NC(=O)[C@@H](NC(=O)[C@H](N)Cc2ccc3ccccc3c2)CSSC[C@@H](C(=O)N[C@H](C(N)=O)C(C)O)NC1=O (stereo partly drawn) [Example 16, H-D-2-Nal^1-cyclo(Cys^2-Tyr^3-o-F-D-Phe^4-Lys^5-Val^6-Cys^7)-Thr^8-NH2.2 CH3COOH] (H-[d2Nal]CY[dPhe(2-F)]KVC[Thr(3ξ)]-NH2; disulfide 2-7) | ≤ 5 nM | ≤ 1000 nM | monodisperse peptide nanotubes and 17 nm monodisperse nanotube | 
4 | CC(C)[C@@H]1NC(=O)[C@H](CCCCN)NC(=O)[C@@H](Cc2cc(F)cc(F)c2)NC(=O)[C@H](Cc2ccc(O)cc2)NC(=O)[C@@H](NC(=O)[C@H](N)Cc2ccc3ccccc3c2)CSSC[C@@H](C(=O)N[C@H](C(N)=O)C(C)O)NC1=O (stereo partly drawn) [Example 17, H-D-2-Nal^1-cyclo(Cys^2-Tyr^3-3,5-diF-D-Phe^4-Lys^5-Val^6-Cys^7)-Thr^8-NH2.2 CH3COOH] (H-[d2Nal]CY[dPhe(3,5-F2)]KVC[Thr(3ξ)]-NH2; disulfide 2-7) | ≤ 5 nM | ≤ 100 nM | monodisperse peptide nanotubes and 15.3 nm monodisperse nanotube | 
5 | CC(C)[C@@H]1NC(=O)[C@H](CCCCN)NC(=O)[C@@H](Cc2cccc(Br)c2)NC(=O)[C@H](Cc2ccc(O)cc2)NC(=O)[C@@H](NC(=O)[C@H](N)Cc2ccc3ccccc3c2)CSSC[C@@H](C(=O)N[C@H](C(N)=O)C(C)O)NC1=O (stereo partly drawn) [Example 18, H-D-2-Nal^1-cyclo(Cys^2-Tyr^3-m-Br-D-Phe^4-Lys^5-Val^6-Cys^7)-Thr^8-NH2.2 CH3COOH] (H-[d2Nal]CY[dPhe(3-Br)]KVC[Thr(3ξ)]-NH2; disulfide 2-7) | ≤ 5 nM | ≤ 100 nM | 18.4-18.8 nm monodisperse | 
6 | CC(C)[C@@H]1NC(=O)[C@H](CCCCN)NC(=O)[C@@H](Cc2ccc([N+](=O)[O-])cc2)NC(=O)[C@H](Cc2ccc(O)cc2)NC(=O)[C@@H](NC(=O)[C@H](N)Cc2ccc3ccccc3c2)CSSC[C@@H](C(=O)N[C@H](C(N)=O)C(C)O)NC1=O (stereo partly drawn) [Example 20, H-D-2-Nal^1-cyclo(Cys^2-Tyr^3-p-nitro-D-Phe^4-Lys^5-Val^6-Cys^7)-Thr^8-NH2.2 CH3COOH] (H-[d2Nal]CY[dPhe(4-NO2)]KVC[Thr(3ξ)]-NH2; disulfide 2-7) | ≤ 5 nM | ≤ 1000 nM | monodisperse peptide nanotubes and 17.6 nm monodisperse nanotube | 
7 | CC(C)[C@@H]1NC(=O)[C@H](CCCCN)NC(=O)[C@@H](Cc2ccc(-c3ccccc3)cc2)NC(=O)[C@H](Cc2ccc(O)cc2)NC(=O)[C@@H](NC(=O)[C@H](N)Cc2ccc3ccccc3c2)CSSC[C@@H](C(=O)N[C@H](C(N)=O)C(C)O)NC1=O (stereo partly drawn) [Example 21, H-D-2-Nal^1-cyclo(Cys^2-Tyr^3-p-Ph-D-Phe^4-Lys^5-Val^6-Cys^7)-Thr^8-NH2.2 CH3COOH] | ≤ 50 nM | ≤ 100 nM | insoluble | 
8 | CC(C)[C@@H]1NC(=O)[C@H](CCCCN)NC(=O)[C@@H](CC2CCCCC2)NC(=O)[C@H](Cc2ccc(O)cc2)NC(=O)[C@@H](NC(=O)[C@H](N)Cc2ccc3ccccc3c2)CSSC[C@@H](C(=O)N[C@H](C(N)=O)[C@@H](C)O)NC1=O [Example 24, H-D-2-Nal^1-cyclo(Cys^2-Tyr^3-cyclohexyl-D-Ala^4-Lys^5-Val^6-Cys^7)-Thr^8-NH2.2 CH3COOH] | ≤ 5 nM | ≤ 100 nM | fibres | 
9 | CC(C)[C@@H]1NC(=O)[C@H](CCCCN)NC(=O)[C@@H](Cc2ccc(/N=N/c3ccccc3)cc2)NC(=O)[C@H](Cc2ccc(O)cc2)NC(=O)[C@@H](NC(=O)[C@H](N)Cc2ccc3ccccc3c2)CSSC[C@@H](C(=O)N[C@H](C(N)=O)[C@@H](C)O)NC1=O [Example 25, H-D-2-Nal^1-cyclo(Cys^2-Tyr^3-p-phenylazo-D-Phe^4-Lys^5-Val^6-Cys^7)-Thr^8-NH2.2 CH3COOH] | ≤ 50 nM | ≤ 1000 nM | 10 nm monodisperse nanotube | 
